How the values were obtained:
Experiment in all cases: relative viability (nuclei count vs DMSO), 5 days (fraction); higher = more cells survive
[1] = compound: CC1=CC=C(C=C1)C(=O)CN2C3=C(CCCC3)SC2=N [Pifithrin_alpha] + Nc1nc2[nH]cc(CCc3ccc(C(=O)N[C@@H](CCC(=O)O)C(=O)O)cc3)c2c(=O)[nH]1 [Pemetrexed] (partner 0.2 µM)
In short: (§1)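 For relative viability, nuclei counts in treated wells were divided by those in vehicle wells. Lung cancer cell lines had been pin-tool dosed in 1536-well plates the day after seeding and cultured for 5 days, then fixed and stained in one step (final 0.05% Triton X-100, 1% formaldehyde, 1 ug/ml Hoechst) and imaged at 4×. Doses were one drug alone or a fixed anchor-drug dose plus five library-drug doses (not always all listed) in √10 steps, and values are duplicate-plate medians.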

[2] = compound: CNC(=O)c1ccccc1Sc1ccc2c(/C=C/c3ccccn3)n[nH]c2c1 [Axitinib] + CS(=O)(=O)N1CCN(Cc2cc3nc(-c4cccc5[nH]ncc45)nc(N4CCOCC4)c3s2)CC1 [Pictilisib] (partner 1 µM)
In short: as §1

[3] = compound: CC1=CC=C(C=C1)C(=O)CN2C3=C(CCCC3)SC2=N [Pifithrin_alpha] + O=C(CCCCCCC(=O)Nc1ccccc1)NO [Vorinostat] (partner 1 µM)
In short: as §1

[4] = compound: CC1=CC=C(C=C1)C(=O)CN2C3=C(CCCC3)SC2=N [Pifithrin_alpha] + COc1cccc2cc(-c3nc([C@H]4CC[C@H](C(=O)O)CC4)n4ncnc(N)c34)[nH]c12 [OSI-027] (partner 0.5 µM)
In short: as §1

| Cell Line | relative viability ([1]; first compound 1 µM) | relative viability ([1]; first compound 3.162 µM) | relative viability ([1]; first compound 10 µM) | relative viability ([1]; first compound 31.62 µM) | relative viability ([1]; first compound 100 µM) | relative viability ([2]; first compound 0.005 µM) | relative viability ([2]; first compound 0.01581 µM) | relative viability ([2]; first compound 0.05 µM) | relative viability ([2]; first compound 0.1581 µM) | relative viability ([2]; first compound 0.5 µM) | relative viability ([3]; first compound 1 µM) | relative viability ([3]; first compound 3.162 µM) | relative viability ([3]; first compound 10 µM) | relative viability ([3]; first compound 31.62 µM) | relative viability ([3]; first compound 100 µM) | relative viability ([4]; first compound 1 µM) | relative viability ([4]; first compound 3.162 µM) | relative viability ([4]; first compound 10 µM) | relative viability ([4]; first compound 31.62 µM) | relative viability ([4]; first compound 100 µM) |
| --- | --- | --- | --- | --- | --- | --- | --- | --- | --- | --- | --- | --- | --- | --- | --- | --- | --- | --- | --- | --- |
| NCI-H322M | 0.635 | 0.599 | 0.605 | 0.578 | 0.511 | 0.571 | 0.496 | 0.474 | 0.472 | 0.505 | 0.807 | 0.811 | 0.802 | 0.788 | 0.845 | 0.536 | 0.531 | 0.503 | 0.419 | 0.508 |
| NCI-H358 | 0.17 | 0.192 | 0.158 | 0.149 | 0.145 | 0.369 | 0.309 | 0.33 | 0.336 | 0.369 | 0.733 | 0.708 | 0.867 | 0.344 | 0.545 | 0.761 | 0.797 | 0.658 | 0.629 | 0.528 |
| NCI-H441 | 0.297 | 0.248 | 0.235 |  | 0.244 | 0.456 | 0.563 | 0.413 | 0.571 | 0.542 | 0.766 | 0.735 | 0.876 |  | 0.931 | 0.524 | 0.662 | 0.614 |  | 0.542 |
| NCI-H460 | 0.0605 | 0.0587 | 0.0622 | 0.0636 | 0.0898 | 0.403 | 0.443 | 0.333 | 0.323 | 0.327 | 0.797 | 0.397 | 0.182 | 0.0968 | 0.178 | 0.613 | 0.541 | 0.397 | 0.274 | 0.48 |
| NCI-H520 | 0.721 | 0.741 | 0.727 | 0.461 | 0.699 | 0.326 | 0.247 | 0.288 | 0.272 | 0.327 | 0.641 | 0.954 | 0.716 | 0.678 | 0.772 | 0.297 | 0.244 | 0.259 | 0.288 | 0.25 |
| NCI-H596 | 0.523 | 0.468 | 0.513 | 0.498 | 0.483 | 0.352 | 0.359 | 0.417 | 0.379 | 0.364 | 0.594 | 0.603 | 0.603 | 0.585 | 0.65 | 0.809 | 0.65 | 0.557 | 0.588 | 0.621 |
| NCI-H647 | 0.166 | 0.164 | 0.197 | 0.156 | 0.162 | 0.439 | 0.416 | 0.425 | 0.478 | 0.399 | 0.514 | 0.565 | 0.592 | 0.482 | 0.53 | 0.589 | 0.757 | 0.556 | 0.517 | 0.57 |
| NCI-H661 | 0.937 | 0.922 | 0.962 | 0.834 | 0.888 | 0.387 | 0.422 | 0.339 | 0.46 | 0.375 | 0.8 | 0.805 | 0.788 | 0.662 | 0.771 | 0.691 | 0.707 | 0.678 | 0.514 | 0.579 |

From the supplement of paper PMC10307832
